Measurements: ChEMBL document CHEMBL3885881, “DrugMatrix”

Species on record: Rattus norvegicus
Experiment: DrugMatrix - Regimen: Daily Repeat
Assay type: toxicity, organism-based, Sprague-Dawley
Design: regimen Daily Repeat, gender Male, age 6-8 weeks
Conditions: in vivo, po, 0 mg/kg, route oral GAVAGE, dose level Control, vehicle .5 % CMC; for ABSOLUTE BASOPHIL / ABSOLUTE EOSINOPHIL / ABSOLUTE LYMPHOCYTE / ABSOLUTE MONOCYTE / ABSOLUTE SEGMENTED NEUTROPHIL / BASOPHIL / EOSINOPHIL / ERYTHROCYTE COUNT / HEMATOCRIT / HEMOGLOBIN / LEUKOCYTE COUNT / LYMPHOCYTE / MEAN CORPUSCULAR HEMOGLOBIN / MEAN CORPUSCULAR HEMOGLOBIN CONCENTRATION / MEAN CORPUSCULAR VOLUME / MONOCYTE / NEUTROPHIL / PLATELET COUNT: tissue Blood; for ALANINE AMINOTRANSFERASE / ALBUMIN / ALKALINE PHOSPHATASE / ASPARTATE AMINOTRANSFERASE / BLOOD UREA NITROGEN / CHLORIDE / CHOLESTEROL / CREATINE PHOSPHOKINASE / CREATININE / GLUCOSE / LACTATE DEHYDROGENASE / LIPASE / PHOSPHORUS / POTASSIUM / SODIUM / TOTAL BILIRUBIN / TOTAL PROTEIN / URIC ACID: tissue Plasma

O=c1cc(-c2ccccc2)oc2c1ccc1ccccc12 [ALPHA-NAPHTHOFLAVONE]
ABSOLUTE BASOPHIL (120 h, time 5 day): 92 cells/µL | ABSOLUTE EOSINOPHIL (120 h, time 5 day): 52 cells/µL | ABSOLUTE LYMPHOCYTE (120 h, time 5 day): 6560 cells/µL | ABSOLUTE MONOCYTE (120 h, time 5 day): 160 cells/µL | ABSOLUTE SEGMENTED NEUTROPHIL (120 h, time 5 day): 1130 cells/µL | BASOPHIL (120 h, time 5 day): 1.14% | EOSINOPHIL (120 h, time 5 day): 0.68% | ERYTHROCYTE COUNT (120 h, time 5 day): 7.51 x10E6/uL | HEMATOCRIT (120 h, time 5 day): 46.04% | HEMOGLOBIN (120 h, time 5 day): 15.62 G/DL | LEUKOCYTE COUNT (120 h, time 5 day): 8.03 x10E3/uL | LYMPHOCYTE (120 h, time 5 day): 81.54% | MEAN CORPUSCULAR HEMOGLOBIN (120 h, time 5 day): 20.84 pg | MEAN CORPUSCULAR HEMOGLOBIN CONCENTRATION (120 h, time 5 day): 33.94 G/DL | MEAN CORPUSCULAR VOLUME (120 h, time 5 day): 61.42 fL | MONOCYTE (120 h, time 5 day): 2% | NEUTROPHIL (120 h, time 5 day): 14.24% | PLATELET COUNT (120 h, time 5 day): 1427.2 x10E3/uL | ALANINE AMINOTRANSFERASE (120 h, time 5 day): 35.6 u/L | ALBUMIN (120 h, time 5 day): 3.64 G/DL | ALKALINE PHOSPHATASE (120 h, time 5 day): 233 u/L | ASPARTATE AMINOTRANSFERASE (120 h, time 5 day): 81 u/L | BLOOD UREA NITROGEN (120 h, time 5 day): 12 mg/dL | CHLORIDE (120 h, time 5 day): 109.4 MEQ/L | CHOLESTEROL (120 h, time 5 day): 47.6 mg/dL | CREATINE PHOSPHOKINASE (120 h, time 5 day): 183.2 u/L | CREATININE (120 h, time 5 day): 0.4 mg/dL | GLUCOSE (120 h, time 5 day): 134.6 mg/dL | LACTATE DEHYDROGENASE (120 h, time 5 day): 89.4 u/L | LIPASE (120 h, time 5 day): 17.2 u/L | PHOSPHORUS (120 h, time 5 day): 13.02 mg/dL | POTASSIUM (120 h, time 5 day): 7 MEQ/L | SODIUM (120 h, time 5 day): 149.6 MEQ/L | TOTAL BILIRUBIN (120 h, time 5 day): 0.18 mg/dL | TOTAL PROTEIN (120 h, time 5 day): 6.06 G/DL | URIC ACID (120 h, time 5 day): 1.04 mg/dL | ABSOLUTE BASOPHIL (2184 h, time 91 day): 130 cells/µL | ABSOLUTE EOSINOPHIL (2184 h, time 91 day): 70 cells/µL | ABSOLUTE LYMPHOCYTE (2184 h, time 91 day): 8670 cells/µL | ABSOLUTE MONOCYTE (2184 h, time 91 day): 160 cells/µL | ABSOLUTE SEGMENTED NEUTROPHIL (2184 h, time 91 day): 1530 cells/µL | BASOPHIL (2184 h, time 91 day): 1.13% | EOSINOPHIL (2184 h, time 91 day): 0.66% | ERYTHROCYTE COUNT (2184 h, time 91 day): 9.13 x10E6/uL | HEMATOCRIT (2184 h, time 91 day): 48.47% | HEMOGLOBIN (2184 h, time 91 day): 16.56 G/DL | LEUKOCYTE COUNT (2184 h, time 91 day): 10.5 x10E3/uL | LYMPHOCYTE (2184 h, time 91 day): 81.63% | MEAN CORPUSCULAR HEMOGLOBIN (2184 h, time 91 day): 18.16 pg | MEAN CORPUSCULAR HEMOGLOBIN CONCENTRATION (2184 h, time 91 day): 34.14 G/DL | MEAN CORPUSCULAR VOLUME (2184 h, time 91 day): 53.14 fL | MONOCYTE (2184 h, time 91 day): 1.53% | NEUTROPHIL (2184 h, time 91 day): 14.71% | PLATELET COUNT (2184 h, time 91 day): 1280.22 x10E3/uL | ALANINE AMINOTRANSFERASE (2184 h, time 91 day): 28.89 u/L | ALBUMIN (2184 h, time 91 day): 3.69 G/DL | ALKALINE PHOSPHATASE (2184 h, time 91 day): 101.11 u/L | ASPARTATE AMINOTRANSFERASE (2184 h, time 91 day): 70.67 u/L | BLOOD UREA NITROGEN (2184 h, time 91 day): 16.78 mg/dL | CHLORIDE (2184 h, time 91 day): 104.56 MEQ/L | CHOLESTEROL (2184 h, time 91 day): 58.78 mg/dL | CREATINE PHOSPHOKINASE (2184 h, time 91 day): 91.22 u/L | CREATININE (2184 h, time 91 day): 0.61 mg/dL | GLUCOSE (2184 h, time 91 day): 142.33 mg/dL | LACTATE DEHYDROGENASE (2184 h, time 91 day): 81.67 u/L | LIPASE (2184 h, time 91 day): 13 u/L | PHOSPHORUS (2184 h, time 91 day): 7.54 mg/dL | POTASSIUM (2184 h, time 91 day): 6.27 MEQ/L | SODIUM (2184 h, time 91 day): 149.89 MEQ/L | TOTAL BILIRUBIN (2184 h, time 91 day): 0.19 mg/dL | TOTAL PROTEIN (2184 h, time 91 day): 7.12 G/DL | URIC ACID (2184 h, time 91 day): 0.97 mg/dL | ABSOLUTE BASOPHIL ([…], time 28 day): 150 cells/µL | ABSOLUTE EOSINOPHIL ([…], time 28 day): 54 cells/µL | ABSOLUTE LYMPHOCYTE ([…], time 28 day): 8890 cells/µL | ABSOLUTE MONOCYTE ([…], time 28 day): 190 cells/µL | ABSOLUTE SEGMENTED NEUTROPHIL ([…], time 28 day): 2250 cells/µL | BASOPHIL ([…], time 28 day): 1.26% | EOSINOPHIL ([…], time 28 day): 0.46% | ERYTHROCYTE COUNT ([…], time 28 day): 8.34 x10E6/uL | HEMATOCRIT ([…], time 28 day): 48.66% | HEMOGLOBIN ([…], time 28 day): 16.04 G/DL | LEUKOCYTE COUNT ([…], time 28 day): 11.58 x10E3/uL | LYMPHOCYTE ([…], time 28 day): 76.74% | MEAN CORPUSCULAR HEMOGLOBIN ([…], time 28 day): 19.2 pg | MEAN CORPUSCULAR HEMOGLOBIN CONCENTRATION ([…], time 28 day): 32.92 G/DL | MEAN CORPUSCULAR VOLUME ([…], time 28 day): 58.32 fL | MONOCYTE ([…], time 28 day): 1.76% | NEUTROPHIL ([…], time 28 day): 19.44% | PLATELET COUNT ([…], time 28 day): 1282.6 x10E3/uL | ALANINE AMINOTRANSFERASE ([…], time 28 day): 27 u/L | ALBUMIN ([…], time 28 day): 3.68 G/DL | ALKALINE PHOSPHATASE ([…], time 28 day): 146.2 u/L | ASPARTATE AMINOTRANSFERASE ([…], time 28 day): 66.6 u/L | BLOOD UREA NITROGEN ([…], time 28 day): 12.4 mg/dL | CHLORIDE ([…], time 28 day): 104.6 MEQ/L | CHOLESTEROL ([…], time 28 day): 59.6 mg/dL | CREATINE PHOSPHOKINASE ([…], time 28 day): 121.8 u/L | CREATININE ([…], time 28 day): 0.6 mg/dL | GLUCOSE ([…], time 28 day): 143 mg/dL | LACTATE DEHYDROGENASE ([…], time 28 day): 87.8 u/L | LIPASE ([…], time 28 day): 17.4 u/L | PHOSPHORUS ([…], time 28 day): 8.68 mg/dL | POTASSIUM ([…], time 28 day): 6.02 MEQ/L | SODIUM ([…], time 28 day): 152.8 MEQ/L | TOTAL BILIRUBIN ([…], time 28 day): 0.26 mg/dL | TOTAL PROTEIN ([…], time 28 day): 6.92 G/DL | URIC ACID ([…], time 28 day): 0.52 mg/dL
